In patent US20230000813A1, “COMPOUND FOR THE TREATMENT OF BOVINE OR SWINE RESPIRATORY DISEASE” (Intervet Inc., priority 2016, published 2023):
In brackets after ≈: the same amount, converted by molar mass.

What follows are compounds tested on Mannheimia haemolytica MH 6374 (ATCC 33396, reference strain) (assay: MIC, broth-microdilution (CLSI VET01-A4)). Conditions: Mannheimia haemolytica MH 6374; read-out: MIC MH 6374.
Format: cell-based
Experimental: (§1) The Minimum inhibitory concentrations (MIC) of compounds according to the invention for a number of veterinary bacterial pathogens were determined by the broth-microdilution method according to CLSI document VET01-A4.
(§2) Microdilution trays containing a doubling dilution series of the test compound were used for the tests. The MIC results were interpreted according to the CLSI documents VET01-S3. The lowest concentration of compound at which no visible growth (i.e. no turbidity) detected by the unaided eye was recorded as the MIC.
(§3) The Minimum inhibitory concentrations (MIC) of compounds according to the invention were determined by the broth-microdilution method according to CLSI document VET01-A4.
(§4) Microdilution trays containing a doubling dilution series of the test compound were used for the tests.
(§5) The MIC results were interpreted according to the CLSI documents VET01-S3. The lowest concentration of compound at which no visible growth (i.e. no turbidity) detected by the unaided eye was recorded as the MIC.

Structure (SMILES) | MIC [µM]
C[C@@H](O)[C@H](NC(=O)c1ccc(C#Cc2ccc(CNC3CCC3)s2)cc1)C(=O)NO [Compound 402] | 0.8 (≈ 0.342 µg/mL)
C#CCNCc1ccc(C#Cc2ccc(C(=O)NC(C(=O)NO)C(C)(C)N)cc2)cc1 (racemic) [Compound 626] | 0.4 (≈ 0.167 µg/mL)
CC(C)C(NC(=O)c1ccc(C#Cc2ccc(CNCC#N)cc2)cc1)C(=O)NO (stereo not drawn) [Compound 346] | 0.4 (≈ 0.162 µg/mL)
CCCNCc1ccc(C#Cc2ccc(C(=O)N[C@H](C(=O)NO)[C@@H](C)O)cc2)s1 [Compound 404] | 1.6 (≈ 0.665 µg/mL)
C[C@@H](O)[C@H](NC(=O)c1ccc(C#Cc2ccc(CNCc3ccco3)nc2)cc1)C(=O)NO [Compound 424] | 1.6 (≈ 0.718 µg/mL)

What follows are compounds tested on Pasteurella multocida PM 12080 (IV102277-0093, BRD field isolate) (assay: MIC, broth-microdilution (CLSI VET01-A4)). Conditions: Pasteurella multocida PM 12080.
Format: cell-based
Experimental: as §1, §2, §3, §4, §5

Structure (SMILES) | MIC PM 12080
C#CCNCc1ccc(C#Cc2ccc(C(=O)NC(C(=O)NO)C(C)(C)N)cc2)cc1 (racemic) [Compound 626] | <=0.1 μM
CC(C)C(NC(=O)c1ccc(C#Cc2ccc(CNCC#N)cc2)cc1)C(=O)NO (stereo not drawn) [Compound 346] | <=0.1 μM
C[C@@H](O)[C@H](NC(=O)c1ccc(C#Cc2ccc(CNCc3ccco3)nc2)cc1)C(=O)NO [Compound 424] | <=0.1 μM

Same assay, conditions: Pasteurella multocida PM 12080; read-out: MIC PM 12080

Structure (SMILES) | MIC [µM]
C[C@@H](O)[C@H](NC(=O)c1ccc(C#Cc2ccc(CNC3CCC3)s2)cc1)C(=O)NO [Compound 402] | 0.4 (≈ 0.171 µg/mL)
CCCNCc1ccc(C#Cc2ccc(C(=O)N[C@H](C(=O)NO)[C@@H](C)O)cc2)s1 [Compound 404] | 0.8 (≈ 0.332 µg/mL)

The compounds below were run on Pasteurella multocida PM 6391 (ATCC 43137, reference strain) (assay: MIC, broth-microdilution (CLSI VET01-A4)). Conditions: Pasteurella multocida PM 6391.
Format: cell-based
Experimental: as §1, §2, §3, §4, §5

Structure (SMILES) | MIC PM 6391
C[C@@H](O)[C@H](NC(=O)c1ccc(C#Cc2ccc(CNCc3ccco3)nc2)cc1)C(=O)NO [Compound 424] | <=0.1 μM

Same assay, conditions: Pasteurella multocida PM 6391; read-out: MIC PM 6391

Structure (SMILES) | MIC [µM]
C[C@@H](O)[C@H](NC(=O)c1ccc(C#Cc2ccc(CNC3CCC3)s2)cc1)C(=O)NO [Compound 402] | 0.2 (≈ 0.0855 µg/mL)
CCCNCc1ccc(C#Cc2ccc(C(=O)N[C@H](C(=O)NO)[C@@H](C)O)cc2)s1 [Compound 404] | 0.4 (≈ 0.166 µg/mL)

Each compound was assayed on Mannheimia haemolytica MH 10720 (154, BRD field isolate) (assay: MIC, broth-microdilution (CLSI VET01-A4)). Conditions: Mannheimia haemolytica MH 10720.
Format: cell-based
Experimental: as §1, §2, §3, §4, §5

Structure (SMILES) | MIC MH 10720
C#CCNCc1ccc(C#Cc2ccc(C(=O)NC(C(=O)NO)C(C)(C)N)cc2)cc1 (racemic) [Compound 626] | <=0.1 μM
CC(C)C(NC(=O)c1ccc(C#Cc2ccc(CNCC#N)cc2)cc1)C(=O)NO (stereo not drawn) [Compound 346] | <=0.1 μM

The compounds below were run on Pasteurella multocida PM 6267 (P 2225 (L386), reference strain, mouse infection strain) (assay: MIC, broth-microdilution (CLSI VET01-A4)). Conditions: Pasteurella multocida PM 6267.
Format: cell-based
Experimental: as §1, §2, §3, §4, §5

Structure (SMILES) | MIC PM 6267
C[C@@H](O)[C@H](NC(=O)c1ccc(C#Cc2ccc(CNC3CCC3)s2)cc1)C(=O)NO [Compound 402] | <=0.1 μM
C#CCNCc1ccc(C#Cc2ccc(C(=O)NC(C(=O)NO)C(C)(C)N)cc2)cc1 (racemic) [Compound 626] | <=0.1 μM
CC(C)C(NC(=O)c1ccc(C#Cc2ccc(CNCC#N)cc2)cc1)C(=O)NO (stereo not drawn) [Compound 346] | <=0.1 μM
C[C@@H](O)[C@H](NC(=O)c1ccc(C#Cc2ccc(CNCc3ccco3)nc2)cc1)C(=O)NO [Compound 424] | <=0.1 μM

Same assay, conditions: Pasteurella multocida PM 6267; read-out: MIC PM 6267

Structure (SMILES) | MIC [µM]
CCCNCc1ccc(C#Cc2ccc(C(=O)N[C@H](C(=O)NO)[C@@H](C)O)cc2)s1 [Compound 404] | 0.4 (≈ 0.166 µg/mL)

Each compound was assayed on Mannheimia haemolytica MH 6357 (M7/2, reference strain, cattle infection strain) (assay: MIC, broth-microdilution (CLSI VET01-A4)). Conditions: Mannheimia haemolytica MH 6357; read-out: MIC MH 6357.
Format: cell-based
Experimental: as §1, §2, §3, §4, §5

Structure (SMILES) | MIC [µM]
C[C@@H](O)[C@H](NC(=O)c1ccc(C#Cc2ccc(CNC3CCC3)s2)cc1)C(=O)NO [Compound 402] | 0.8 (≈ 0.342 µg/mL)
C#CCNCc1ccc(C#Cc2ccc(C(=O)NC(C(=O)NO)C(C)(C)N)cc2)cc1 (racemic) [Compound 626] | 0.8 (≈ 0.335 µg/mL)
CC(C)C(NC(=O)c1ccc(C#Cc2ccc(CNCC#N)cc2)cc1)C(=O)NO (stereo not drawn) [Compound 346] | 0.4 (≈ 0.162 µg/mL)
CCCNCc1ccc(C#Cc2ccc(C(=O)N[C@H](C(=O)NO)[C@@H](C)O)cc2)s1 [Compound 404] | 1.6 (≈ 0.665 µg/mL)
C[C@@H](O)[C@H](NC(=O)c1ccc(C#Cc2ccc(CNCc3ccco3)nc2)cc1)C(=O)NO [Compound 424] | 0.8 (≈ 0.359 µg/mL)

The compounds below were run on Mannheimia haemolytica MH 12587 (1071, BRD field isolate, macrolide-resistance: erm+, E+) (assay: MIC, broth-microdilution (CLSI VET01-A4)). Conditions: Mannheimia haemolytica MH 12587, macrolide-resistant.
Format: cell-based
Experimental: as §1, §2, §3, §4, §5

Structure (SMILES) | MIC MH 12587 [µM]
C[C@@H](O)[C@H](NC(=O)c1ccc(C#Cc2ccc(CNC3CCC3)s2)cc1)C(=O)NO [Compound 402] | 1.6 (≈ 0.684 µg/mL)
C#CCNCc1ccc(C#Cc2ccc(C(=O)NC(C(=O)NO)C(C)(C)N)cc2)cc1 (racemic) [Compound 626] | 0.8 (≈ 0.335 µg/mL)
CC(C)C(NC(=O)c1ccc(C#Cc2ccc(CNCC#N)cc2)cc1)C(=O)NO (stereo not drawn) [Compound 346] | 0.8 (≈ 0.324 µg/mL)
CCCNCc1ccc(C#Cc2ccc(C(=O)N[C@H](C(=O)NO)[C@@H](C)O)cc2)s1 [Compound 404] | 1.6 (≈ 0.665 µg/mL)
C[C@@H](O)[C@H](NC(=O)c1ccc(C#Cc2ccc(CNCc3ccco3)nc2)cc1)C(=O)NO [Compound 424] | 1.6 (≈ 0.718 µg/mL)

The compounds below were run on Pasteurella multocida PM 10775 (080130003051, BRD field isolate) (assay: MIC, broth-microdilution (CLSI VET01-A4)). Conditions: Pasteurella multocida PM 10775.
Format: cell-based
Experimental: as §1, §2, §3, §4, §5

Structure (SMILES) | MIC PM 10775
C[C@@H](O)[C@H](NC(=O)c1ccc(C#Cc2ccc(CNC3CCC3)s2)cc1)C(=O)NO [Compound 402] | <=0.1 μM
C#CCNCc1ccc(C#Cc2ccc(C(=O)NC(C(=O)NO)C(C)(C)N)cc2)cc1 (racemic) [Compound 626] | <=0.1 μM
CC(C)C(NC(=O)c1ccc(C#Cc2ccc(CNCC#N)cc2)cc1)C(=O)NO (stereo not drawn) [Compound 346] | <=0.1 μM
CCCNCc1ccc(C#Cc2ccc(C(=O)N[C@H](C(=O)NO)[C@@H](C)O)cc2)s1 [Compound 404] | <=0.1 μM
C[C@@H](O)[C@H](NC(=O)c1ccc(C#Cc2ccc(CNCc3ccco3)nc2)cc1)C(=O)NO [Compound 424] | <=0.1 μM

What follows are compounds tested on Mannheimia haemolytica MH 13065 (XB0446-6003.9, BRD field isolate) (assay: MIC, broth-microdilution (CLSI VET01-A4)). Conditions: not given.
Format: cell-based
Experimental: as §1, §2

Structure (SMILES) | MIC [µM]
C[C@@H](O)[C@H](NC(=O)c1ccc(C#Cc2ccc(CNC3CCC3)s2)cc1)C(=O)NO [Compound 402] | 0.4 (≈ 0.171 µg/mL)
C#CCNCc1ccc(C#Cc2ccc(C(=O)NC(C(=O)NO)C(C)(C)N)cc2)cc1 (racemic) [Compound 626] | 0.4 (≈ 0.167 µg/mL)
CC(C)C(NC(=O)c1ccc(C#Cc2ccc(CNCC#N)cc2)cc1)C(=O)NO (stereo not drawn) [Compound 346] | 0.2 (≈ 0.0809 µg/mL)
CCCNCc1ccc(C#Cc2ccc(C(=O)N[C@H](C(=O)NO)[C@@H](C)O)cc2)s1 [Compound 404] | 0.8 (≈ 0.332 µg/mL)
C[C@@H](O)[C@H](NC(=O)c1ccc(C#Cc2ccc(CNCc3ccco3)nc2)cc1)C(=O)NO [Compound 424] | 0.4 (≈ 0.179 µg/mL)

Each compound was assayed on Mannheimia haemolytica MH 13093 (XB0472-6014.1, BRD field isolate) (assay: MIC, broth-microdilution (CLSI VET01-A4)). Conditions: not given.
Format: cell-based
Experimental: as §1, §2

Structure (SMILES) | MIC [µM]
C[C@@H](O)[C@H](NC(=O)c1ccc(C#Cc2ccc(CNC3CCC3)s2)cc1)C(=O)NO [Compound 402] | 0.8 (≈ 0.342 µg/mL)
C#CCNCc1ccc(C#Cc2ccc(C(=O)NC(C(=O)NO)C(C)(C)N)cc2)cc1 (racemic) [Compound 626] | 0.8 (≈ 0.335 µg/mL)
CC(C)C(NC(=O)c1ccc(C#Cc2ccc(CNCC#N)cc2)cc1)C(=O)NO (stereo not drawn) [Compound 346] | 0.4 (≈ 0.162 µg/mL)
CCCNCc1ccc(C#Cc2ccc(C(=O)N[C@H](C(=O)NO)[C@@H](C)O)cc2)s1 [Compound 404] | 1.6 (≈ 0.665 µg/mL)
C[C@@H](O)[C@H](NC(=O)c1ccc(C#Cc2ccc(CNCc3ccco3)nc2)cc1)C(=O)NO [Compound 424] | 0.8 (≈ 0.359 µg/mL)
